Source: the supplement of paper PMC10307832

Columns and labels:
Assay in all cases: relative viability (nuclei count vs DMSO), 5 days (fraction); higher = more cells survive
[1] = tested on: A-427
How it was run: (§1)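 Relative viability equals treated-well nuclei counts divided by vehicle-well nuclei counts. Counts came from 4× images of lung cancer cell lines grown in 1536-well plates for 5 days after pin-tool dosing on the day after seeding. Dosing used one drug alone or a fixed anchor-drug dose plus five library-drug doses (not always all listed) in √10 steps, and values are medians of duplicate plates.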

[2] = tested on: ABC-1
How it was run: as §1

[3] = tested on: EPLC-272H
How it was run: as §1

[4] = tested on: HCC-15
How it was run: as §1

[5] = tested on: LC-2-ad
How it was run: as §1

[6] = tested on: LK-2
How it was run: as §1

[7] = tested on: NCI-H1734
How it was run: as §1

[8] = tested on: NCI-H1793
How it was run: as §1

[9] = tested on: NCI-H1915
How it was run: as §1

[10] = tested on: NCI-H1944
How it was run: as §1

[11] = tested on: NCI-H2009
How it was run: as §1

[12] = tested on: NCI-H2023
How it was run: as §1

[13] = tested on: NCI-H2342
How it was run: as §1

[14] = tested on: NCI-H2347
How it was run: as §1

[15] = tested on: NCI-H322M
How it was run: as §1

[16] = tested on: NCI-H358
How it was run: as §1

[17] = tested on: NCI-H441
How it was run: as §1

[18] = tested on: NCI-H522
How it was run: as §1

[19] = tested on: NCI-H647
How it was run: as §1

[20] = tested on: NCI-H838
How it was run: as §1

[21] = tested on: RERF-LC-KJ
How it was run: as §1

[22] = tested on: SW 1573
How it was run: as §1

[23] = tested on: UMC-11
How it was run: as §1

Cc1cn(-c2cc(NC(=O)c3ccc(C)c(Nc4nccc(-c5cccnc5)n4)c3)cc(C(F)(F)F)c2)cn1 [Nilotinib] + CC(=O)c1c(C)c2cnc(Nc3ccc(N4CCNCC4)cn3)nc2n(C2CCCC2)c1=O [Palbociclib] (partner 0.5 µM)
relative viability ([1]; first compound 0.001 µM): 0.51
relative viability ([1]; first compound 0.003162 µM): 0.493
relative viability ([1]; first compound 0.01 µM): 0.524
relative viability ([1]; first compound 0.03162 µM): 0.552
relative viability ([1]; first compound 0.1 µM): 0.466
relative viability ([2]; first compound 0.001 µM): 0.634
relative viability ([2]; first compound 0.003162 µM): 0.697
relative viability ([2]; first compound 0.01 µM): 0.775
relative viability ([2]; first compound 0.03162 µM): 0.699
relative viability ([2]; first compound 0.1 µM): 0.466
relative viability ([3]; first compound 0.001 µM): 0.348
relative viability ([3]; first compound 0.003162 µM): 0.345
relative viability ([3]; first compound 0.03162 µM): 0.291
relative viability ([3]; first compound 0.1 µM): 0.39
relative viability ([4]; first compound 0.001 µM): 0.688
relative viability ([4]; first compound 0.003162 µM): 0.882
relative viability ([4]; first compound 0.01 µM): 0.87
relative viability ([4]; first compound 0.03162 µM): 0.578
relative viability ([4]; first compound 0.1 µM): 0.476
relative viability ([5]; first compound 0.001 µM): 0.535
relative viability ([5]; first compound 0.003162 µM): 0.605
relative viability ([5]; first compound 0.01 µM): 0.561
relative viability ([5]; first compound 0.03162 µM): 0.466
relative viability ([5]; first compound 0.1 µM): 0.502
relative viability ([6]; first compound 0.001 µM): 0.751
relative viability ([6]; first compound 0.003162 µM): 0.475
relative viability ([6]; first compound 0.01 µM): 0.788
relative viability ([6]; first compound 0.03162 µM): 0.698
relative viability ([6]; first compound 0.1 µM): 0.992
relative viability ([7]; first compound 0.001 µM): 0.333
relative viability ([7]; first compound 0.003162 µM): 0.36
relative viability ([7]; first compound 0.01 µM): 0.372
relative viability ([7]; first compound 0.03162 µM): 0.312
relative viability ([7]; first compound 0.1 µM): 0.317
relative viability ([8]; first compound 0.001 µM): 0.332
relative viability ([8]; first compound 0.003162 µM): 0.352
relative viability ([8]; first compound 0.01 µM): 0.307
relative viability ([8]; first compound 0.03162 µM): 0.281
relative viability ([8]; first compound 0.1 µM): 0.3
relative viability ([9]; first compound 0.001 µM): 0.492
relative viability ([9]; first compound 0.003162 µM): 0.535
relative viability ([9]; first compound 0.01 µM): 0.53
relative viability ([9]; first compound 0.03162 µM): 0.502
relative viability ([9]; first compound 0.1 µM): 0.475
relative viability ([10]; first compound 0.001 µM): 0.279
relative viability ([10]; first compound 0.003162 µM): 0.335
relative viability ([10]; first compound 0.01 µM): 0.372
relative viability ([10]; first compound 0.03162 µM): 0.365
relative viability ([10]; first compound 0.1 µM): 0.378
relative viability ([11]; first compound 0.001 µM): 0.21
relative viability ([11]; first compound 0.003162 µM): 0.191
relative viability ([11]; first compound 0.01 µM): 0.193
relative viability ([11]; first compound 0.03162 µM): 0.211
relative viability ([11]; first compound 0.1 µM): 0.191
relative viability ([12]; first compound 0.001 µM): 0.395
relative viability ([12]; first compound 0.003162 µM): 0.401
relative viability ([12]; first compound 0.01 µM): 0.457
relative viability ([12]; first compound 0.03162 µM): 0.333
relative viability ([12]; first compound 0.1 µM): 0.419
relative viability ([13]; first compound 0.001 µM): 0.508
relative viability ([13]; first compound 0.003162 µM): 0.559
relative viability ([13]; first compound 0.01 µM): 0.49
relative viability ([13]; first compound 0.03162 µM): 0.489
relative viability ([13]; first compound 0.1 µM): 0.478
relative viability ([14]; first compound 0.001 µM): 0.452
relative viability ([14]; first compound 0.003162 µM): 0.419
relative viability ([14]; first compound 0.01 µM): 0.474
relative viability ([14]; first compound 0.03162 µM): 0.43
relative viability ([14]; first compound 0.1 µM): 0.396
relative viability ([15]; first compound 0.001 µM): 0.512
relative viability ([15]; first compound 0.003162 µM): 0.461
relative viability ([15]; first compound 0.01 µM): 0.534
relative viability ([15]; first compound 0.03162 µM): 0.527
relative viability ([15]; first compound 0.1 µM): 0.602
relative viability ([16]; first compound 0.001 µM): 0.131
relative viability ([16]; first compound 0.003162 µM): 0.131
relative viability ([16]; first compound 0.01 µM): 0.148
relative viability ([16]; first compound 0.03162 µM): 0.124
relative viability ([16]; first compound 0.1 µM): 0.127
relative viability ([17]; first compound 0.001 µM): 0.204
relative viability ([17]; first compound 0.003162 µM): 0.209
relative viability ([17]; first compound 0.01 µM): 0.197
relative viability ([17]; first compound 0.03162 µM): 0.201
relative viability ([17]; first compound 0.1 µM): 0.192
relative viability ([18]; first compound 0.03162 µM): 0.819
relative viability ([18]; first compound 0.1 µM): 0.805
relative viability ([19]; first compound 0.001 µM): 0.384
relative viability ([19]; first compound 0.003162 µM): 0.382
relative viability ([19]; first compound 0.01 µM): 0.468
relative viability ([19]; first compound 0.03162 µM): 0.266
relative viability ([19]; first compound 0.1 µM): 0.26
relative viability ([20]; first compound 0.001 µM): 0.215
relative viability ([20]; first compound 0.003162 µM): 0.23
relative viability ([20]; first compound 0.01 µM): 0.188
relative viability ([20]; first compound 0.03162 µM): 0.198
relative viability ([20]; first compound 0.1 µM): 0.201
relative viability ([21]; first compound 0.001 µM): 0.965
relative viability ([21]; first compound 0.003162 µM): 1.11
relative viability ([21]; first compound 0.01 µM): 1.21
relative viability ([21]; first compound 0.03162 µM): 0.896
relative viability ([21]; first compound 0.1 µM): 1.03
relative viability ([22]; first compound 0.001 µM): 0.391
relative viability ([22]; first compound 0.003162 µM): 0.408
relative viability ([22]; first compound 0.01 µM): 0.363
relative viability ([22]; first compound 0.03162 µM): 0.271
relative viability ([22]; first compound 0.1 µM): 0.32
relative viability ([23]; first compound 0.001 µM): 0.299
relative viability ([23]; first compound 0.003162 µM): 0.296
relative viability ([23]; first compound 0.01 µM): 0.299
relative viability ([23]; first compound 0.03162 µM): 0.374
relative viability ([23]; first compound 0.1 µM): 0.313
